Experimental data taken from patent US20220040150A1, “I[…] ADMI[…] FOR DMT-ASSISTED PSYCHOTHERAPY” (Universitatsspital Basel, priority 2020, published 2022).
Where two headings read alike, the source gives them in different places.

Experiments:
[1] = 0.4 mg/kg iv bolus, cited from earlier work
[2] = molecular target: serotonin transporter (Homo sapiens, UniProt P31645); details: in contrast to LSD; cited from earlier work
[3] = system: healthy volunteers; details: cited from earlier work
[4] = system: healthy subjects; assay: Example 1 clinical study: subjective effects rating over time
[5] = 0.3 mg/kg iv, cited from earlier work
[6] = system: healthy subjects; assay: Example 1 clinical study: 5D-ASC scale
[7] = cited from earlier work
[8] = DMT plasma concentrations after intravenous bolus, pilot study (Timmermann et al., 2019); type: in vivo; details: human, consistent with measurements of Timmermann 2019 and Strassman 1994, may represent redistribution, read-out: approximate elimination half-life
Description: A more recent pilot study also assessed plasma concentrations of DMT after intravenous bolus administration of 7-20 mg of DMT in a small number of subjects (Timmermann et al., 2019). DMT blood concentrations were approximately 56 ng/mL 2 minutes after administration of 14 mg (corresponding to approximately 0.2 mg/kg) (Timmermann et al., 2019) in line with the aforementioned data by Strassman (Strassman et al., 1994). The measurements from both studies are consistent with an approximate elimination half-life of 5-10 minutes. However, this may represent rapid redistribution and metabolism and may therefore be shorter than the true elimination half-life (see above). The study only used a bolus, so it is different from the present invention. The above descriptions illustrate that there is limited information on the effects of intravenous DMT administration. However, no study has validly determined the elimination half-life of DMT and other pharmacokinetic parameters and this will be done within the current invention to have better and rational basis on dosing.

[9] = system: healthy subjects; assay: Example 1 clinical study: blood pressure and heart rate; details: perfusion with or without bolus
[10] = system: experienced hallucinogen-using volunteers; details: 0.3 mg/kg iv at half-hour intervals 4 times in a morning; cited from earlier work
[11] = Plasma levels of DMT after intravenous bolus plus continuous infusion (Gouzoulis-Mayfrank et al., 2005); type: in vivo; details: human
Description: Previous research already documented the rapid action of DMT and its safety (Gouzoulis-Mayfrank et al., 2005). A study included 15 healthy volunteers. DMT was given at either a low or a high dose. The low dose consisted of a bolus injection of 0.2 mg/kg (˜15 mg) over 5 minutes followed by a break of one minute, followed by a continuous infusion with 0.015 mg/kg (˜1 mg)/min over 84 minutes. The high dose consisted of a bolus injection of 0.3 mg/kg (˜23 mg) and a continuous infusion with 0.02 mg/kg (˜1.5 mg)/min. The two doses were administered on the same day with a two-hour break between the end of the first and the beginning of the second administration in a single-blind design. Subjective effects were assessed and plasma concentrations of DMT were determined during the perfusion and thereafter. Effects of both doses included vivid alterations of visual, auditory, and tactile perception. […] Most subjects tended to report their experiences during the experiment spontaneously, and they were interested in interpersonal interactions. Mood varied from anxious and tense to expansive and euphoric with mostly vivid verbal, mimic, and psychomotor expression of emotions. Ego-control and insight into the experimental nature of the experience were preserved at the low dose. […]

[12] = 25 mg (0.3 mg/kg) bolus over 30 seconds; cited from earlier work
[13] = perfusion with placebo bolus, two subjects

Chain of serotonin transporter (P31645 whole entry): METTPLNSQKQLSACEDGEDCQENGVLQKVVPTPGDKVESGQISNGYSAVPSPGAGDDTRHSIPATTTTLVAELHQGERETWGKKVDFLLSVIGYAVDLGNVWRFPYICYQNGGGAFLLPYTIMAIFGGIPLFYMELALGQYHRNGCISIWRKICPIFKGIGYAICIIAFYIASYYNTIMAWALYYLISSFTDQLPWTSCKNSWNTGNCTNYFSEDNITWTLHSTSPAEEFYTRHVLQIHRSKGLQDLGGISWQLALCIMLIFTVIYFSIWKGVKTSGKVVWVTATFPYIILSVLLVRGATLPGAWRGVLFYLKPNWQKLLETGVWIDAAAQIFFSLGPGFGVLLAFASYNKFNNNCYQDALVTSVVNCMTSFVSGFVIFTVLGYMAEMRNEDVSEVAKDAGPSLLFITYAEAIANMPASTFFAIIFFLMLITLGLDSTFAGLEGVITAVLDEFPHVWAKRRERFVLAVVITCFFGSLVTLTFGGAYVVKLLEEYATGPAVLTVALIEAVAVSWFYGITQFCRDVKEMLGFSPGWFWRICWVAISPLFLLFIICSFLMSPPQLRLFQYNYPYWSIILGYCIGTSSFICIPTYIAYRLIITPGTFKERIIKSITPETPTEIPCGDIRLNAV

Structure (SMILES): CN(C)CCc1c[nH]c2ccccc12 [DMT, N,N-dimethyltryptamine]
- Blood levels of DMT base ([1]; 2 minutes): ~90 ng/mL
- Blood levels of DMT base ([1]; 5 minutes): ~42 ng/mL
- Blood levels of DMT base ([1]; 10 minutes): ~28 ng/mL
- Blood levels of DMT base ([1]; 15 minutes): ~17 ng/mL
- Blood levels of DMT base ([1]; 30 minutes): ~5 ng/mL
- interaction with the serotonin transporter [2]: interacts
- time within which subjective effects subsided ([3]; after stopping infusion): ≤ 20 min
- subjects who stopped after the first DMT dose due to adverse responses ([3]; among the 15 subjects): 3
- persons reporting visual hallucinations ([3]; high dose): all participants
- time for adverse effects to vanish from stopping the infusion ([3]; in vivo): within a few minutes
- persons reporting visual hallucinations ([3]; low dose, 15 healthy volunteers): seven
- lasting complaints at interviews ([3]; seven days and 12 months after the experiments): no lasting complaints
- subjects reporting tiredness and headache in the evening of the experiment ([3]; subjects who received DMT): 10 out of 13
- duration of the psychedelic state ([4]; 90 minutes perfusion): approximately 90 minutes
- time to new steady state after starting the perfusion ([4]; available data from Example 1): approximately 20 minutes
- ratings of bad drug effects and anxiety ([4]; bolus and perfusion, 2-5 minutes after the bolus): small increases
- ratings of any drug effects ([4]; bolus and perfusion, mean in three subjects): maximal within seconds
- ratings of good drug effects ([4]; bolus and perfusion, three subjects): maximal immediately after the DMT bolus administration and up to 30 minutes
- bad drug effects and anxiety ratings ([4]; perfusion with placebo bolus): no bad drug effects and no anxiety
- time over which good drug effects steadily increased after start of the perfusion ([4]; perfusion with placebo bolus): 30 min
- time to disappearance of good drug effects after stopping the perfusion ([4]; perfusion with placebo bolus): less than 10 minutes
- description of the DMT experience ([4]; perfusion with placebo bolus, dose used in the example): overall similar to LSD at a moderate dose of 0.05-0.1 mg LSD base
- time over which any drug effects steadily increased after starting the perfusion [4, 13]: 30 min
- time to disappearance of effect after perfusion ended at 90 minutes [4, 13]: less than 10 minutes
- blood DMT levels ([5]; after 2 minutes): ~70 ng/mL
- blood DMT levels ([5]; after 5 minutes): ~50 ng/mL
- blood DMT levels ([5]; after 10 minutes): ~30 ng/mL
- blood DMT levels ([5]; after 15 minutes): ~18 ng/mL
- Anxiety (5D-ASC) ([6]; bolus and perfusion): almost absent
- 5D-ASC scores ([6]; bolus and perfusion compared with perfusion alone, mean in three subjects): more pronouncedly increased 5D-ASC scores
- 5D-ASC ratings ([6]; perfusion with placebo bolus): increased ratings of Oceanic Boundlessness and lower ratings in Anxious Ego-Dissolution and Visionary Restructuralization
- Plasma levels of DMT ([7]; 10 minutes before start of second dose, 110 minutes after stopping the first infusion): 5 ± 3 ng/mL
- Mean plasma levels of DMT ([7]; high dose: bolus 0.3 mg/kg, then infusion 0.02 mg/kg/min): 60 ± 28 ng/mL
- Mean plasma levels of DMT ([7]; low dose: bolus 0.2 mg/kg over 5 minutes, then infusion 0.015 mg/kg/min over 84 minutes): 43 ± 26 ng/mL
- half-life [8]: 5 to 10 min
- effect on blood pressure and heart rate [9]: only moderately and transiently increased blood pressure
- Tolerance to the subjective effects of DMT [10]: did not occur
- half-life ([11]; in line with subjective effects and Strassman data, read-out: true half-life (likely)): ~10 min
- half-life ([11]; indicated by the very crude and possibly invalid plasma data, read-out: elimination half-life): ~30 min
- effect site concentration (simulated) [12]: over 100 ng/mL
- initial plasma concentration spike (simulated) [12]: over 200 ng/mL
